The values below come from PMC10192880 (Frontiers in Pharmacology, 2023).

The nature of one data set: clinical. The method, then:
This was an open-label, three-period, controlled before-and-after trial (China Clinical Trial Registry: ChiCTR1900024344). It was conducted at the Second Affiliated Hospital within Tianjin University of Traditional Chinese Medicine (Tianjin, China). The protocol was approved by the ethics committees of the Second Affiliated Hospital within Tianjin University of Traditional Chinese Medicine. Written informed consent was provided by all participants. This trial was in accordance with the Declaration of Helsinki 1964 and its later amendments.
Men and women aged 18–45 years participated in this trial if they were healthy and the EPHX1 A/A genotype was confirmed. The key exclusion criteria were coagulation disorders or allergies to drugs.
Our trial comprised three periods. […] After 3 days, individuals entered the second period, in which CDDP (10 pills, p. o., t.d.s.) was administered for 5 days.
Moreover, blood samples were taken from participants once a day before CDDP administration for assays of coagulation indices to ensure safety.

Data set [1] has as its system transfected EPHX1 A/G and BL cells. Briefly: MTT cell viability of transfected cells. To be noted: 0.0625–8.00 mg/mL for 24 h or 72 h, dose-dependent. The data set is classed as cell-based, human. How it is done:
CDDP was manufactured by Tianjin Tasly Group (Tianjin, China). […] Transfected cells were plated evenly on a 96-well cell-culture plate with ∼8,000 cells/well. They were cultured for 24 h at 37°C. […] Subsequently, to each well was added 10 µL of 3-(4,5-Dimethylthiazol-2-yl)-2,5-diphenyltetrazolium bromide solution (5 mg/mL), and cells were allowed to incubate for an additional 4 h in an atmosphere of 5% CO2 at 37°C. Then, the cells were centrifugated and the […]. Finally, the blue-purple crystals were dissolved using dimethyl sulfoxide (150 µL) with agitation for 10 min. The absorbance of each well was determined at 490 nm. Cell viability (Supplementary Figure S1) was calculated according to the formula: Cell viability=absorbanceexperiment/absorbancecontrol×100%
Thus, the incubation time selected at 24 h.

Where [2] appears, read: by dose adjustment (residual drug converted into a dose), third period: warfarin + CDDP.
[3] abbreviates: by dose adjustment, first period: warfarin 3 mg p.o. alone.
Where [4] appears, read: first period: warfarin 3 mg p.o. alone, HVs EPHX1 A/A.
Setting [5] is: third period: warfarin 3 mg p.o. + CDDP 10 pills p.o., HVs EPHX1 A/A.

Consider `CC(=O)C[C@H](c1ccccc1)c1c(O)c2ccccc2oc1=O` [R-Warfarin], for which, in the data set “clinical” (setting [2]), the AUC0-144 is given as 14594 ± 3088 ng/h/mL, the Cmax worked out at 273.9 ± 58.10 ng/mL, the time to peak (Tmax) is 0.7143 ± 0.3934 h and the Vd turned out to be 18445 ± 2408 mL. Besides, in “clinical” (setting [3]), the AUC0-144 stood at 11630 ± 2938 ng/h/mL, the CL was 210.3 ± 57.13 mL/h, the Cmax turned out to be 204.6 ± 71.38 ng/mL and the Tmax was determined as 1.857 ± 1.435 h. Moreover, the Vd in “clinical” (setting [3]) is given as 20505 ± 4506 mL. For the same molecule, in “clinical” (setting [4]), the AUC0-144 amounted to 11630 ± 2938 ng/h/mL, the CL amounted to 210.3 ± 57.13 mL/h, the Cmax is 204.6 ± 71.38 ng/mL and the time to peak (Tmax) turned out to be 1.857 ± 1.435 h. For the same molecule, in “clinical” (setting [4]), the Vd amounted to 20505 ± 4506 mL. In the data set “clinical” (setting [5]), the AUC0-144 stood at 14594 ± 3088 ng/h/mL, the CL is 164.8 ± 51.16 mL/h, the Cmax worked out at 273.9 ± 58.10 ng/mL and the Tmax stood at 0.7143 ± 0.3934 h. The Vd in the data set “clinical” (setting [5]) is reported as 16283 ± 2164 mL.

On to `CC(=O)C[C@@H](c1ccccc1)c1c(O)c2ccccc2oc1=O` [S-Warfarin], for which, in the data set “clinical” (setting [2]), the AUC0-144 is reported as 7223 ± 1727 ng/h/mL, the CL is listed as 423.5 ± 91.18 mL/h, the Cmax is listed as 261.9 ± 54.50 ng/mL and the Tmax is given as 0.714 ± 0.393 h. Moreover, in “clinical” (setting [2]), the Vd is on record as 32429 ± 3754 mL. Besides, in “clinical” (setting [3]), the AUC0-144 is 5812 ± 1632 ng/h/mL, the CL came to 466.0 ± 109.7 mL/h, the Cmax was 199.0 ± 76.90 ng/mL and the Tmax was 1.500 ± 1.414 h. Further, the Vd in the data set “clinical” (setting [3]) is reported as 37594 ± 9569 mL. Besides, in the data set “clinical” (setting [4]), the AUC0-144 came to 5812 ± 1632 ng/h/mL, the CL was determined as 466.0 ± 109.7 mL/h, the Cmax was found to be 199.0 ± 76.90 ng/mL and the Tmax stood at 1.500 ± 1.414 h. The molecule further came in with a Vd in the data set “clinical” (setting [4]) of 37594 ± 9569 mL. Moreover, in the data set “clinical” (setting [5]), the AUC0-144 came to 7223 ± 1727 ng/h/mL, the CL is recorded as 374.1 ± 82.69 mL/h, the peak concentration (Cmax) is reported as 261.9 ± 54.50 ng/mL and the Tmax is 0.714 ± 0.393 h. For the same molecule, the Vd in the data set “clinical” (setting [5]) was 28630 ± 3437 mL.

Consider `CC(=O)CC(c1ccccc1)c1c(O)c2ccccc2oc1=O` (centres unmarked) [Warfarin], for which the “cells' viability” value in data set [1] was “significantly decreased”. Besides, in the data set “clinical” (both, human, in vivo, po, 3 mg), the CL worked out at 144.9 ± 36.87 mL/h, the Cmax came out at 403 ± 148 ng/mL, the Tmax turned out to be 1.86 ± 1.44 h and the Vd is given as 13393 ± 3036 mL.

As usually defined, the Cmax is the highest concentration seen after dosing. By Tmax is commonly meant the time from dosing to the highest level.
